Source: BindingDB's records for doi:10.1016/s0960-894x(00)00610-7 (Institute of Molecular and Cell Biology, 2001)

Target: T1, Chymotrypsin-C (Homo sapiens, UniProt Q99895)
T1 sequence (Q99895 whole entry): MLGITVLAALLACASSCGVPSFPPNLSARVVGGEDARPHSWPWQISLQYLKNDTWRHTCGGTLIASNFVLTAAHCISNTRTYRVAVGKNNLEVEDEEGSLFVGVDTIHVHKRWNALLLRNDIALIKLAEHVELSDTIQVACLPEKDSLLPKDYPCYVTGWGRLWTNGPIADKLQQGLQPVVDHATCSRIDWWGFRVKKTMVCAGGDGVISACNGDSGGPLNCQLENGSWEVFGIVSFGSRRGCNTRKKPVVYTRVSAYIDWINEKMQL
Experiment: ChEBML_197813
Text: Inhibitory activity against Serine protease chymotrypsin

## C=C(c1cccc(OC(=O)N[C@@H](CC(C)C)C(=O)N(CCN(Cc2ccc(C(=O)OC)cc2)Cc2ccc(C(=O)OC)cc2)Cc2ccc(Cl)cc2)c1)c1sc(=S)n(CC(=O)OCC)c1O [4-{[(2-{(4-Chloro-benzyl)-[2-(3-{1-[3-ethoxycarbonylmethyl-4-oxo-2-thioxo-thiazolidin-(5Z)-ylidene]-ethyl}-phenoxycarbonylamino)-4-methyl-pentanoyl]-amino}-ethyl)-amino-methyl]di-benzoic acid methyl ester]
  IC50: 210 µM
